Laboratory results: US10195156B2, “Compounds and compositions for intracellular delivery of agents” (ModernaTX, Inc., priority 2015, dated 2019)

Key:
[1] = Lipid clearance: % dose remaining in mouse liver 6 h and 24 h after administration of nanoparticle compositions; type: in vivo, CD-1 mice; conditions: Table 7c
From the text: (§1) In contrast, hEPO expression in rats induced by administration of a nanoparticle composition including a compound according to one of formulae (I), (Ia1)-(Ia6), (Ib), (II), (IIa), (III), and (IIIa) was substantially […] than that measured for MC3. […] Table 7c and 7d show additional protein expressions and clearance data from compositions with various compounds disclosed herein as compared to with MC3.

[2] = tested on: Luc expression; test: Luc expression in CD-1 mice (AUC relative to MC3); type: in vivo; conditions: Table 7c
Procedure: FIG. 15 is a graph summarizing luciferase expression levels at 6 h after administration of nanoparticle compositions containing compounds of the disclosure to CD-1 mice at a dose of 0.5 mpk. Total light flux values were acquired via body luminescent imaging (BLI) 6 h after administration. In this Figure, the numbers 1-7 and 10 refer to the compositions containing Compounds 4-10 and MC3 respectively.
as §1

[3] = Encapsulation efficiency of RNA (QUANT-IT RIBOGREEN RNA assay); type: physicochemical
Method in brief: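 RiboGreen fluorescence (ex ~480, em ~520 nm) measured after 15 min at 37 °C on samples at ~5 μg/mL in TE, pH 7.5, ± 2% Triton X-100 solution. After blank subtraction, free RNA is given as intact-sample signal divided by disrupted-sample signal.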

[4] = Particle size and polydispersity index of nanoparticle compositions (Zetasizer Nano ZS); type: physicochemical
Method in brief: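 Values are size and PDI readings from a Zetasizer Nano ZS. Measurements are taken in 1×PBS; zeta potential, by contrast, uses 15 mM PBS.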

[5] = tested on: LDL-c; test: LDL levels in LDLr−/− mice after mRNA encoding the LDL receptor; type: in vivo, LDLR knockout mice; conditions: Mus musculus; Table 7b; LDLr−/− mice, 0.5 mpk, LDLr; read-out: LDL levels lipid/untreated LDLr−/− mice 0.5 mpk, LDLr
[6] = pKa of nanoparticle compositions; type: physicochemical; conditions: Table 1; rows without footnote mark
[7] = Table 1, rows without footnote mark
[8] = Table 1, rows without footnote mark (lipid:DOPE:cholesterol:PEG-DMG 40:20:38.5:1.5, Luc mRNA; MC3 standard formulation)

Row | Compound | % Dose Remaining 6 hr [1] | % Dose Remaining 24 hr [1] | EE (%) ([3]; Table 1b) | PDI ([4]; Table 1b) | Size (nm) ([4]; Table 1b) | EE (%) [3, 7] | PDI [4, 7] | Size (nm) [4, 8] | pKa [6] | AUC (p/s*h) [2] | response vs control in vivo at 0.5 mg/kg [5]
1 | CCCCCCCCCCCCN(CCCCCCCCCCCC)CCN(CCCCCCCCC)CC(=O)N1CCN(C(=O)CN(CCCCCCCCCCCC)CCCCCCCCCCCC)CC1 [Compound 10, 2-(Didodecylamino)-1-(4-(N-(2-(didodecylamino)ethyl)-N-nonylglycyl)piperazin-1-yl)ethan-1-one] | – | – | – | – | – | 99.2% | 0.130 | 81.3 nm | 6.58 | – | 98%
2 | CCCCCCCCCCCCN(CCCCCCCCCCCC)CCN(CCCCCCCCC)CC(=O)N1CCN(C(=O)CN(CCCCCCCCC)CCCCCCCCC)CC1 [Compound 6, 2-((2-(Didodecylamino)ethyl)(nonyl)amino)-1-(4-(dinonylglycyl)piperazin-1-yl)ethan-1-one] | – | – | – | – | – | 98.9% | 0.160 | 81.4 nm | 6.62 | – | 91%
3 | CCCCCCCCCCCCN(CCCCCCCCCCCC)CC(=O)N1CCN(C(=O)CN(CCCCCCCCCCCC)CCN(CCCCCCCCC)CCCCCCCCC)CC1 [Compound 9, 2-(Didodecylamino)-1-(4-(N-(2-(dinonylamino)ethyl)-N-dodecylglycyl)piperazin-1-yl)ethan-1-one] | – | – | – | – | – | 99.5% | 0.170 | 78.0 nm | 6.76 | – | 87%
4 | CCCCCCCCCCCCN(CCCCCCCCCCCC)CC(=O)N1CCN(C(=O)CN(CCCCCCCCC)CCN(CCCCCCCCC)CCCCCCCCC)CC1 [Compound 8, 2-(Didodecylamino)-1-(4-(N-(2-(dinonylamino)ethyl)-N-nonylglycyl)piperazin-1-yl)ethan-1-one] | – | – | – | – | – | 98.5% | 0.110 | 83.3 nm | 6.87 | – | 66%
5 | CCCCCCCCCCCCN(CCN(CCCCCCCCC)CCCCCCCCC)CC(=O)N1CCN(C(=O)CN(CCCCCCCCC)CCCCCCCCC)CC1 [Compound 5, 2-(Dinonylamino)-1-(4-(N-(2-(dinonylamino)ethyl)-N-dodecylglycyl)piperazin-1-yl)ethan-1-one] | – | – | – | – | – | 98.1% | 0.140 | 85.1 nm | 7.01 | – | 47%
6 | CCCCCCCCCCCCN(CCCCCCCCCCCC)CCN(CCCCCCCCCCCC)CC(=O)N1CCN(C(=O)CN(CCCCCCCCC)CCCCCCCCC)CC1 [Compound 7, 2-((2-(Didodecylamino)ethyl)(dodecyl)amino)-1-(4-(dinonylglycyl)piperazin-1-yl)ethan-1-one] | – | – | – | – | – | 99.1% | 0.130 | 85.1 nm | 6.94 | – | 63%
7 | CCCCCCCCCN(CCCCCCCCC)CCN(CCCCCCCCC)CC(=O)N1CCN(C(=O)CN(CCCC(=O)OCCCCC)CCCC(=O)OCCCCC)CC1 [Compound 72, Dipentyl 4,4′-((2-(4-(N-(2-(dinonylamino)ethyl)-N-nonylglycyl)piperazin-1-yl)-2-oxoethyl)azanediyl)dibutyrate] | 7.06% | 6.40% | 92.7% | 0.22 | 102.5 nm | – | – | – | – | 6.53E+10 p/s*h | –

Now from value to compound, other results behind:

Row | % Dose Remaining 6 hr [1] | % Dose Remaining 24 hr [1] | EE (%) ([3]; Table 1b) | PDI ([4]; Table 1b) | Size (nm) ([4]; Table 1b) | EE (%) [3, 7] | PDI [4, 7] | Size (nm) [4, 8] | pKa [6] | Compound | AUC (p/s*h) [2] | response vs control in vivo at 0.5 mg/kg [5]
8 | 0.88% | 0.24% | 98.8% | 0.23 | 101.9 nm | – | – | – | – | CCCCCCCCCN(CCCCCCCC(=O)OC)CCC1CCN(C(=O)CN(CCCCCCCCC)CCN(CCCCCCCCC)CCCCCCCCC)CC1 [Compound 57, Methyl 8-((2-(1-(N-(2-(dinonylamino)ethyl)-N-nonylglycyl)piperidin-4-yl)ethyl)(nonyl)amino)octanoate] | 1.21E+11 p/s*h | –
9 | 21.18% | 15.98% | 98.8% | 0.23 | 105.7 nm | – | – | – | – | CCCCCCCCCN(CCCCC(=O)OCCCC)CCC1CCN(C(=O)CN(CCCCCCCCC)CCN(CCCCCCCCC)CCCCCCCCC)CC1 [Compound 60, Butyl 5-((2-(1-(N-(2-(dinonylamino)ethyl)-N-nonylglycyl)piperidin-4-yl)ethyl)(nonyl)amino)pentanoate] | 2.84E+11 p/s*h | –
10 | 5.18% | 4.77% | 96.9% | 0.23 | 93.0 nm | – | – | – | – | CCCCCCCCCN(CCCCCCCCC)CCN(CCCCCCCCC)CC(=O)N1CCN(C(=O)CN(CCCCCCCCC)CCCCCC(=O)OCCC)CC1 [Compound 54, Propyl 6-((2-(4-(N-(2-(dinonylamino)ethyl)-N-nonylglycyl)piperazin-1-yl)-2-oxoethyl)(nonyl)amino)hexanoate] | 1.89E+10 p/s*h | –
11 | 1.21% | 0.16% | 99.0% | 0.24 | 117.4 nm | – | – | – | – | CCCCCCCCCN(CCCCCCCCC)CCN(CCCCCCCCC)CC(=O)N1CCN(C(=O)CN(CCCCCCCCC)CCCOC(=O)CCCCC)CC1 [Compound 56, 3-((2-(4-(N-(2-(Dinonylamino)ethyl)-N-nonylglycyl)piperazin-1-yl)-2-oxoethyl)(nonyl)amino)propyl Hexanoate] | 1.77E+11 p/s*h | –
12 | 2.58% | 1.60% | 95.2% | 0.23 | 119.5 nm | – | – | – | – | CCCCCCCCCN(CCCCCCCCC)CCN(CCCCCCCCC)CC(=O)N1CCN(C(=O)CN(CCCCCCCCC)CCCCC(=O)OCCCC)CC1 [Compound 55, Butyl 5-((2-(4-(N-(2-(dinonylamino)ethyl)-N-nonylglycyl)piperazin-1-yl)-2-oxoethyl)(nonyl)amino)pentanoate] | 2.00E+10 p/s*h | –
13 | 1.35% | 0.77% | 82.8% | 0.23 | 103.0 nm | – | – | – | – | CCCCCCCCCN(CCCCCCCCC)CCN(CCCCCCCCC)CC(=O)N1CCN(C(=O)CN(CCCCCCCCC)CCCCCCC(=O)OCC)CC1 [Compound 53, Ethyl 7-((2-(4-(N-(2-(dinonylamino)ethyl)-N-nonylglycyl)piperazin-1-yl)-2-oxoethyl)(nonyl)amino)heptanoate] | 9.22E+09 p/s*h | –
14 | 1.31% | 0.13% | 99.1% | 0.23 | 86.8 nm | – | – | – | – | CCCCCCCCCN(CCCOC(=O)CCCCC)CCC1CCN(C(=O)CN(CCCCCCCCC)CCN(CCCCCCCCC)CCCCCCCCC)CC1 [Compound 61, 3-((2-(1-(N-(2-(Dinonylamino)ethyl)-N-nonylglycyl)piperidin-4-yl)ethyl)(nonyl)amino)propyl hexanoate] | 4.65E+11 p/s*h | –
